Data: ChEMBL document CHEMBL1201862, “PubChem BioAssay data set” (2004)
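A five-concentration, 48-hour dose response in 96-well plates underlies each endpoint, interpolated linearly between surrounding concentrations. GI50 is the concentration that inhibits growth by half.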 Calls of active or inactive are those of the source. Cut-off read from the data, not from the text of the source: active = GI50 up to about 1.1 µM and inactive = higher.

How the values were obtained:
Experiment in all cases: NCI anticancer screen, dose series, 48 h
NCI-H460 = tested on: NCI-H460
UACC-257 = tested on: UACC-257
HOP-92 = tested on: HOP-92
SK-MEL-2 = tested on: SK-MEL-2
TK-10 = tested on: TK-10
K562 = tested on: K562
RXF 393 = tested on: RXF 393
A549 = tested on: A549
BT-549 = tested on: BT-549
786-0 = tested on: 786-0
ACHN = tested on: ACHN
MCF7 = tested on: MCF7
T47D = tested on: T47D
MDA-MB-231 = tested on: MDA-MB-231
Hs-578T = tested on: Hs-578T
SF-268 = tested on: SF-268
HL-60 = tested on: HL-60
HCC 2998 = tested on: HCC 2998
OVCAR-3 = tested on: OVCAR-3

SMILES	GI50 (NCI-H460)	GI50 (UACC-257)	GI50 (HOP-92)	GI50 (SK-MEL-2)	GI50 (TK-10)	GI50 (K562)	GI50 (RXF 393)	GI50 (A549)	GI50 (BT-549)	GI50 (786-0)	GI50 (ACHN)	GI50 (MCF7)	GI50 (T47D)	GI50 (MDA-MB-231)	GI50 (Hs-578T)	GI50 (SF-268)	GI50 (HL-60)	GI50 (HCC 2998)	GI50 (OVCAR-3)
N=c1oc2ccc([N+](=O)[O-])cc2cc1C(=O)NCc1ccccc1	41 µM (inactive)	19.8 µM (inactive)	18 µM (inactive)	19.3 µM (inactive)	29.2 µM (inactive)	40 µM (inactive)	14.7 µM (inactive)	57.1 µM (inactive)	14 µM (inactive)	24.6 µM (inactive)	16.7 µM (inactive)	35.7 µM (inactive)	17.9 µM (inactive)	22 µM (inactive)	18.7 µM (inactive)	22.3 µM (inactive)	27.2 µM (inactive)	32.1 µM (inactive)	
Cc1cc(S(=O)(=O)Nc2nc(N)n(C)n2)c(S)cc1Cl	> 10 µM (inactive)	> 10 µM (inactive)		> 10 µM (inactive)	> 10 µM (inactive)	> 10 µM (inactive)	> 10 µM (inactive)	> 10 µM (inactive)	> 10 µM (inactive)	> 10 µM (inactive)	> 10 µM (inactive)	> 10 µM (inactive)	> 10 µM (inactive)	> 10 µM (inactive)	> 10 µM (inactive)	> 10 µM (inactive)	> 10 µM (inactive)	> 10 µM (inactive)	> 10 µM (inactive)
CCN1CCCn2c(=O)[nH]c3cc(Br)cc1c32	> 100 µM (inactive)	> 100 µM (inactive)		> 100 µM (inactive)	51.6 µM (inactive)	> 100 µM (inactive)	15.2 µM (inactive)	> 100 µM (inactive)	14.6 µM (inactive)	65 µM (inactive)	> 100 µM (inactive)	> 100 µM (inactive)	65.5 µM (inactive)	38.4 µM (inactive)	0.394 µM (active)	24 µM (inactive)	> 100 µM (inactive)	> 100 µM (inactive)	> 100 µM (inactive)
CC(C)(C)OC(=O)N/N=C(/N)Cc1ccccc1		> 100 µM (inactive)	> 100 µM (inactive)	> 100 µM (inactive)	> 100 µM (inactive)	> 100 µM (inactive)	> 100 µM (inactive)	> 100 µM (inactive)	> 100 µM (inactive)	> 100 µM (inactive)	> 100 µM (inactive)	> 100 µM (inactive)	> 100 µM (inactive)	> 100 µM (inactive)	> 100 µM (inactive)	> 100 µM (inactive)	> 100 µM (inactive)	> 100 µM (inactive)	> 100 µM (inactive)
N#CC1=C(N2CCOCC2)CCC1		> 100 µM (inactive)		> 100 µM (inactive)	> 100 µM (inactive)	> 100 µM (inactive)	> 100 µM (inactive)	> 100 µM (inactive)	> 100 µM (inactive)	> 100 µM (inactive)	> 100 µM (inactive)	> 100 µM (inactive)	> 100 µM (inactive)	> 100 µM (inactive)	> 100 µM (inactive)	> 100 µM (inactive)	> 100 µM (inactive)	> 100 µM (inactive)	> 100 µM (inactive)
C=CCOC1(CC=C)C(=O)OC2C(O)COC21O (configuration not stated)	> 100 µM (inactive)	> 100 µM (inactive)		> 100 µM (inactive)	> 100 µM (inactive)	> 100 µM (inactive)	> 100 µM (inactive)	> 100 µM (inactive)	> 100 µM (inactive)	> 100 µM (inactive)	> 100 µM (inactive)	> 100 µM (inactive)	> 100 µM (inactive)	> 100 µM (inactive)	> 100 µM (inactive)	> 100 µM (inactive)	> 100 µM (inactive)	> 100 µM (inactive)	> 100 µM (inactive)
